The values that follow come from patent publication US9708336B2, “Metallo-beta-lactamase inhibitors” (priority 2014, dated 2017).

SMILES strings stand for the structures. Read-outs that look alike come from different tables or passages of the source.

One assay concerns the target NDM-1 (Klebsiella pneumoniae, UniProt C7C422). Kind of assay: biochemical. It is filed as biochemical. The conditions noted are these: read-out: NDM-1 IC50.
The next assay deals with IMP-1 (Serratia marcescens, UniProt P52699). Kind of assay: biochemical. The format is biochemical. The conditions noted are these: read-out: IMP-1 IC50.
IMP-1, sequence (P52699 whole entry, looked up): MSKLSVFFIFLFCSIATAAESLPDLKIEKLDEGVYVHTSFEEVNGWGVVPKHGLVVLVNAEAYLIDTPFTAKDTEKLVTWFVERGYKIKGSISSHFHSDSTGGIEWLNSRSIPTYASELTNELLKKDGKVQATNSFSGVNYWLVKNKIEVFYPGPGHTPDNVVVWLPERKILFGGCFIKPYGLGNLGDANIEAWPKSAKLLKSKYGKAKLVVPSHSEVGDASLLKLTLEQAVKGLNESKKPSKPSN
The target of the next assay is VIM-1 (Pseudomonas aeruginosa (strain ATCC 15692 / DSM 22644 / CIP 104116 / JCM 14847 / LMG 12228 / 1C / PRS 101 / PAO1), UniProt A0A0F7KYQ8). The experiment in a line: Enzyme activity: determination of IC50, fluorescence assay with CCF2-FA substrate (VIM-1). The format is biochemical.
Assay [1] has as its system Escherichia coli expressing NDM-1 (CLB30016). The experiment in a line: Antibiotic potentiation activity: synergistic concentration (MITC95) with imipenem, OD600 growth. The format is cell-based. In short, it runs like this: (§1)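 Absorbance after a 22–24 h, 35 °C incubation served as the read-out. Wells held bacteria (saline suspension diluted 1:100 into 1.1× CAMHB), imipenem at 4 μg/ml final or optionally 1 μg/ml, and test compound.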

For assay [2], the system named is Klebsiella pneumoniae expressing VIM-1 (IHMA599644). The description is as above. It is filed as cell-based. A digest of the protocol: as §1
Assay [3] deals with Serratia marcescens expressing IMP-1 (CL5741). The assay is described as above. It is filed as cell-based. In short, it runs like this: as §1
The mark [4] stands for this setting: NDM-1 enzyme, CCF2-FA substrate.
Setting [5] is: IMP-1 enzyme, CCF2-FA substrate.
[6] abbreviates: VIM-1 enzyme, CCF2-FA substrate, read-out: VIM-1 IC50.
Where [7] appears, read: (CLB30016, NDM-1), 95% growth inhibition.
Where [8] appears, read: Klebsiella pneumoniae IHMA599644 (VIM-1), 95% growth inhibition.
[9] abbreviates: Serratia marcescens CL5741 (IMP-1), 95% growth inhibition.
The mark [10] stands for this setting: NDM-1 enzyme, CCF2-FA fluorescence assay.
[11] abbreviates: IMP-1 enzyme, CCF2-FA fluorescence assay.
Where [12] appears, read: VIM-1 enzyme, CCF2-FA fluorescence assay, read-out: VIM-1 IC50.
Setting [13] is: Escherichia coli expressing NDM-1 (CLB30016), 95% growth inhibition.
The mark [14] stands for this setting: Klebsiella pneumoniae expressing VIM-1 (IHMA599644), 95% growth inhibition.
[15] abbreviates: Serratia marcescens expressing IMP-1 (CL5741), 95% growth inhibition.
Where [16] appears, read: fluorescence assay with CCF2-FA substrate.
Setting [17] is: concentration giving 95% inhibition of bacterial growth.

NDM-1, sequence (C7C422 whole entry, looked up, species assumed): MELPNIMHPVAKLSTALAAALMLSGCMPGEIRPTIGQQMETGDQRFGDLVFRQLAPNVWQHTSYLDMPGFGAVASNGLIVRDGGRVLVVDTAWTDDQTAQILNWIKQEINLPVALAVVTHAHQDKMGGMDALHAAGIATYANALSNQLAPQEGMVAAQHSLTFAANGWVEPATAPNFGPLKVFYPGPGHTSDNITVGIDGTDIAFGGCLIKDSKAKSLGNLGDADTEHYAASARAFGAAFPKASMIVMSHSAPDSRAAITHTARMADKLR

Consider `Nc1nc2c(-c3ccc(C(F)CO)c(S(N)(=O)=O)c3-c3nn[nH]n3)cccc2s1` (stereo not drawn) [Example 532, 3-(2-Aminobenzo[d]thiazol-4-yl)-6-(1-fluoro-2-hydroxyethyl)-2-(2H-tetrazol-5-yl)benzenesulfonamide], for which the IC50 came out at 0.598 nM at NDM-1 (setting [4]), 6.42 nM on IMP-1 (setting [5]) and 3.96 nM on VIM-1 (setting [6]). Further, in assay [1] (setting [7]), the “Escherichia coli MITC95” value came to 12.5 µM. Moreover, the “Klebsiella pneumoniae MITC95” value in assay [2] (setting [8]) came out at 12.5 µM. Also, the “Serratia marcescens MITC95” value in assay [3] (setting [9]) was found to be 12.5 µM.

Turning to `NS(=O)(=O)c1c(CC[C@H]2CC[C@@H](N)CC2)ccc(-c2ccc(C3CNC3)cc2)c1-c1nnn[nH]1` [Example 600, 4-(2-((1s,4r)-4-aminocyclohexyl)ethyl)-4′-(azetidin-3-yl)-2-(1H-tetrazol-5-yl)-[1,1′-biphenyl]-3-sulfonamide], the IC50 at NDM-1 (setting [4]) was found to be 2.56 nM; on IMP-1 (setting [5]) it was 43.8 nM; against VIM-1 (VIM-1 IC50, VIM-1 enzyme, CCF2-FA substrate) it was 0.861 nM. Also, the “Escherichia coli MITC95” value in assay [1] (setting [7]) came out at 1.563 µM. Moreover, the “Klebsiella pneumoniae MITC95” value in assay [2] (setting [8]) stood at 3.125 µM. In assay [3] (setting [9]), the “Serratia marcescens MITC95” value was determined as 6.25 µM.

In the case of `Nc1ncc(-c2ccc(Br)c(S(N)(=O)=O)c2-c2nn[nH]n2)s1` [Example 424, 3-(2-aminothiazol-5-yl)-6-bromo-2-(2H-tetrazol-5-yl)benzenesulfonamide], the IC50 on NDM-1 (setting [10]) worked out at 18.9 nM; at IMP-1 (setting [11]), 80.8 nM; at VIM-1 (setting [12]) it was 32.7 nM. The “Escherichia coli MITC95” value in assay [1] (setting [13]) stood at 0.7813 µM. For the same molecule, the “Klebsiella pneumoniae MITC95” value in assay [2] (setting [14]) was 15.63 µM. For the same molecule, the “Serratia marcescens MITC95” value in assay [3] (setting [15]) is 1.563 µM.

As to `NS(=O)(=O)c1c(C(F)(F)F)ccc(N2CCC(CCO)CC2)c1-c1nnn[nH]1` [Example 661, 3-[4-(2-hydroxyethyl)piperidin-1-yl]-2-(1H-tetrazol-5-yl)-6-(trifluoromethyl)benzenesulfonamide], the results for the 50% inhibitory concentration (IC50) at NDM-1 (setting [4]), on IMP-1 (setting [5]) and at VIM-1 (setting [6]) were 1.01 nM, 0.965 nM and 0.22 nM, respectively. The “Escherichia coli MITC95” value in assay [1] (setting [7]) stood at 2.703 µM. Moreover, the “Klebsiella pneumoniae MITC95” value in assay [2] (setting [8]) came to 2.75 µM. In assay [3] (setting [9]), the “Serratia marcescens MITC95” value was determined as 0.0625 µM.

Take `CC(C)(O)C1CN(Cc2ccc(-c3cccc(S(N)(=O)=O)c3-c3nnn[nH]3)cc2)C1` [Example 336, 4′-((3-(2-hydroxypropan-2-yl)azetidin-1-yl)methyl)-2-(1H-tetrazol-5-yl)-[1,1′-biphenyl]-3-sulfonamide]: the IC50 at NDM-1 (setting [10]) is 34 nM; on IMP-1 (setting [11]), 379 nM; at VIM-1 (setting [12]), 634 nM. Also, the “Escherichia coli MITC95” value in assay [1] (setting [13]) worked out at 0.7813 µM. For the same molecule, the “Klebsiella pneumoniae MITC95” value in assay [2] (setting [14]) stood at 100 µM. Moreover, the “Serratia marcescens MITC95” value in assay [3] (setting [15]) turned out to be 4.688 µM.

In the case of `CN1CCN(Cc2ccc(-c3cccc(S(N)(=O)=O)c3-c3nnn[nH]3)cc2)CC1` [Example 329, 4′-((4-methylpiperazin-1-yl)methyl)-2-(1H-tetrazol-5-yl)-[1,1′-biphenyl]-3-sulfonamide], the half-maximal inhibitory concentration (IC50) at NDM-1 (setting [10]) came to 8.26 nM; at IMP-1 (setting [11]) it was 87.1 nM; on VIM-1 (setting [12]) it was 683 nM. In addition, the “Escherichia coli MITC95” value in assay [1] (setting [13]) was found to be 0.7813 µM. In addition, in assay [2] (setting [14]), the “Klebsiella pneumoniae MITC95” value was determined as 200 µM. In addition, the “Serratia marcescens MITC95” value in assay [3] (setting [15]) was determined as 1.563 µM.

With `NS(=O)(=O)c1cccc(-c2ccc(CN[C@@H]3CC[C@H](O)C3)cc2)c1-c1nnn[nH]1` [Example 369, 4′-({[(1R,3S)-3-hydroxycyclopentyl]amino}methyl)-2-(1H-tetrazol-5-yl)biphenyl-3-sulfonamide], the IC50 came out at 25.2 nM at NDM-1 (setting [10]), 728 nM on IMP-1 (setting [11]) and 667 nM at VIM-1 (setting [12]). Also, the “Escherichia coli MITC95” value in assay [1] (setting [13]) came out at 3.125 µM. Besides, the “Klebsiella pneumoniae MITC95” value in assay [2] (setting [14]) came out at 200 µM. The “Serratia marcescens MITC95” value in assay [3] (setting [15]) is 12.5 µM.

As to `NS(=O)(=O)c1cccc(-c2ccc(CN3CNC(=O)C3)cc2)c1-c1nnn[nH]1` [Example 342, 4′-[(4-oxoimidazolidin-1-yl)methyl]-2-(1H-tetrazol-5-yl)biphenyl-3-sulfonamide], the half-maximal inhibitory concentration (IC50) worked out at 4.64 nM at NDM-1 (setting [10]), 46 nM on IMP-1 (setting [11]) and 80.4 nM on VIM-1 (setting [12]). In addition, the “Escherichia coli MITC95” value in assay [1] (setting [13]) was 3.125 µM. In addition, in assay [2] (setting [14]), the “Klebsiella pneumoniae MITC95” value turned out to be 25 µM. In addition, the “Serratia marcescens MITC95” value in assay [3] (setting [15]) turned out to be 0.7813 µM.

Consider `NS(=O)(=O)c1c(C(F)(F)F)ccc(NC2(C3CCNC3)CC2)c1-c1nnn[nH]1` (stereo not drawn) [Example 777, 3-[(1-pyrrolidin-3-ylcyclopropyl)amino]-2-(1H-tetrazol-5-yl)-6-(trifluoromethyl) benzenesulfonamide], for which the IC50 on NDM-1 (setting [16]) turned out to be 23.3 nM; on IMP-1 (setting [16]), 51.3 nM; at VIM-1 (fluorescence assay with CCF2-FA substrate, read-out: VIM-1 IC50), 6.73 nM. Also, in assay [1] (CLB30016 (NDM-1), 95% inhibition of bacterial growth), the “Escherichia coli MITC95” value came out at 12.5 µM. Besides, the “Klebsiella pneumoniae MITC95” value in assay [2] (IHMA599644 (VIM-1), 95% inhibition of bacterial growth) stood at 6.25 µM. Further, the “Serratia marcescens MITC95” value in assay [3] (CL5741 (IMP-1), 95% inhibition of bacterial growth) was 12.5 µM.

Turning to `NS(=O)(=O)c1cccc(-c2ccc(CN3CCOCC3)cc2)c1-c1nnn[nH]1` [Example 341, 4′-(morpholin-4-ylmethyl)-2-(1H-tetrazol-5-yl)biphenyl-3-sulfonamide], the 50% inhibitory concentration (IC50) on NDM-1 (setting [10]) stood at 2.94 nM; at IMP-1 (setting [11]), 22.1 nM; at VIM-1 (setting [12]), 786 nM. The “Escherichia coli MITC95” value in assay [1] (setting [13]) was 0.7813 µM. Moreover, the “Klebsiella pneumoniae MITC95” value in assay [2] (setting [14]) was greater than 200 µM. Also, the “Serratia marcescens MITC95” value in assay [3] (setting [15]) is 1.172 µM.

On to `Nc1nc2ccc(-c3ccc(CC4CCNCC4)c(S(N)(=O)=O)c3-c3nn[nH]n3)cc2[nH]1` [Example 610, 3-(2-amino-3H-benzo[d]imidazol-5-yl)-6-(piperidin-4-ylmethyl)-2-(2H-tetrazol-5-yl)benzenesulfonamide], for which the figures for the IC50 at NDM-1 (setting [4]), at IMP-1 (setting [5]) and at VIM-1 (setting [6]) were 2.92 nM, 114 nM and 6.39 nM, respectively. For the same molecule, the “Escherichia coli MITC95” value in assay [1] (setting [7]) worked out at 0.3906 µM. Also, the “Klebsiella pneumoniae MITC95” value in assay [2] (setting [8]) came to 1.563 µM. For the same molecule, the “Serratia marcescens MITC95” value in assay [3] (setting [9]) worked out at 3.125 µM.

In the case of `NC(=O)C1CCCN(c2ccc(C(F)(F)F)c(S(N)(=O)=O)c2-c2nnn[nH]2)C1` (stereo not drawn) [Example 662, 1-[3-sulfamoyl-2-(1H-tetrazol-5-yl)-4-(trifluoromethyl)phenyl]piperidine-3-carboxamide], the figures for the half-maximal inhibitory concentration (IC50) on NDM-1 (setting [4]), on IMP-1 (setting [5]) and on VIM-1 (setting [6]) were 11.6 nM, 37.1 nM and 4.58 nM, respectively. Moreover, the “Escherichia coli MITC95” value in assay [1] (setting [7]) stood at 6.25 µM. Besides, the “Klebsiella pneumoniae MITC95” value in assay [2] (setting [8]) came to 12.5 µM. In assay [3] (setting [9]), the “Serratia marcescens MITC95” value was found to be 1.953 µM.

As for `Cc1cccc(Cc2cccc(S(N)(=O)=O)c2-c2nnn[nH]2)c1` [Example 158, 3-(3-methylbenzyl)-2-(1H-tetrazol-5-yl)benzenesulfonamide], the IC50 came to 16 nM on NDM-1 (setting [16]); 387 nM on IMP-1 (setting [16]); 352 nM against VIM-1 (VIM-1 IC50, fluorescence assay with CCF2-FA substrate). Also, in assay [1] (setting [17]), the “Escherichia coli expressing NDM-1 (CLB 30016) MITC95” value stood at 3.125 µM. The “Klebsiella pneumoniae expressing VIM-1 (IHMA 599644) MITC95” value in assay [2] (setting [17]) came to 200 µM. Also, the “Serratia marcescens expressing IMP-1 (CL5741) MITC95” value in assay [3] (setting [17]) is 12.5 µM.

On to `CN(C)CCCNCc1ccc(-c2cccc(S(N)(=O)=O)c2-c2nnn[nH]2)cc1` [Example 348, 4′-({[3-(dimethylamino)propyl]amino}methyl)-2-(1H-tetrazol-5-yl)biphenyl-3-sulfonamide], for which the IC50 amounted to 25.4 nM on NDM-1 (setting [10]), 1330 nM at IMP-1 (setting [11]) and 851 nM at VIM-1 (setting [12]). Moreover, the “Escherichia coli MITC95” value in assay [1] (setting [13]) was 1.172 µM. In addition, the “Klebsiella pneumoniae MITC95” value in assay [2] (setting [14]) was determined as 75 µM. Further, the “Serratia marcescens MITC95” value in assay [3] (setting [15]) turned out to be 9.375 µM.

The IC50 is the point on the concentration scale where inhibition reaches its midpoint.
